Source: paper PMC7413254 (Nature Communications, 2020)
Like-named read-outs stand apart in the source and are kept apart here.

Key:
[1] = tested on: PfCRT; assay: Potential co-substrates tested for influx of VF-6 via PfCRT into the oocyte; format: cell-based, Plasmodium falciparum; parameters: key: X: Compounds that have been tested as potential co-substrates but are not required for influx of VF-6 via PfCRT into the oocyte
[2] = tested on: non-expressing oocytes; assay: cells; format: cell-based, Xenopus laevis; conditions: Xenopus laevis, total [3H]CQ transport; for inhibition at 500 µM: [test solute] = 0.5 mM; for inhibition at 1000 µM: [test solute] = 1 mM; for inhibition at 2000 µM: [test solute] = 2 mM
How it was run: (§1)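 PfCRT-expressing and control oocytes: ND96 pH 5.5 → 1.5 h at 27.5 °C → ice-cold ND96 wash → 10% SDS lysis → scintillation count.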

[3] = biological target: T1, PfCRT^3D7 (Plasmodium falciparum, UniProt Q8IBZ9); assay: cell-based; format: cell-based; conditions: total [3H]CQ transport; for inhibition at 500 µM: [test solute] = 0.5 mM; for inhibition at 1000 µM: [test solute] = 1 mM; for inhibition at 2000 µM: [test solute] = 2 mM
How it was run: as §1

[4] = tested on: non-expressing oocytes; format: cell-based, Xenopus laevis; conditions: total [3H]CQ transport; for Uptake of [3H]CQ (% non-expressing oocyte control), trans-stimulation: non-expressing oocytes, normalised to the oocyte type control; for Uptake of [3H]CQ (% PfCRTDd2 control), trans-stimulation, non-expressing oocytes: mean ± SEM, SEM
How it was run: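 Oocytes (ten per treatment, ≥4 independent frogs/days) were preloaded by injecting VF-6 in 25 nL ND96 at pH 5.0, 5.5, 6.0 or 7.0, or Na^+-free choline buffer, then uptake run 1.5 h, 27.5 °C, ND96 pH 5.5 by default. Internal concentrations assumed ~400 nL oocyte volume.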

[5] = biological target: T2, PfCRT^Dd2 (Plasmodium falciparum, UniProt Q9N623, A220S/I356T/K76T/M74I/N326S/N75E/Q271E/R371I); assay: [3H]CQ uptake into Xenopus oocytes, cis-inhibition by unlabelled solute; format: cell-based
How it was run: as §1

[6] = biological target: T3, PfCRT^Ecu1110 (Plasmodium falciparum, UniProt Q9N623, A220S/I356L/K76T/N326D); assay: as above; format: cell-based
How it was run: as §1

[7] = tested on: PfCRT; assay: Test of solutes as potential co-substrates for influx of VF-6 via PfCRT into the oocyte; format: cell-based, Plasmodium falciparum; parameters: key: X: Compounds that have been tested as potential co-substrates but are not required for influx of VF-6 via PfCRT into the oocyte; conditions: X = tested
[8] = biological target: T1, PfCRT^3D7; assay: cell-based; format: cell-based
How it was run: (§2)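 Transport measured in Xenopus oocytes expressing the transporters, 1.5 h at 27.5 °C in ND96 pH 5.5 unless noted. For trans-stimulation, VF-6 injected in 25 nL ND96 at pH 5.0–7.0 or Na^+-free (choline) buffer; intracellular levels based on ~400 nL oocyte volume. Ten oocytes per treatment, ≥4 experiments.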

[9] = biological target: T2, PfCRT^Dd2; assay: cell-based; format: cell-based; conditions: […]; for activity at 45000 µM: [test solute]i = 45 mM (30 mM for some solutes due to solubility)
How it was run: as §2

[10] = biological target: T4, PfNT1 (Plasmodium falciparum, UniProt Q8IDM6); assay: cell-based; format: cell-based; conditions: for activity at 5000 µM: total [3H]CQ transport
T4 construct: expressed in transfected cells; host or cells: Xenopus laevis oocytes (stage V-VI), cRNA-injected
How it was run: as §2

[11] = biological target: T3, PfCRT^Ecu1110; assay: cell-based; format: cell-based; conditions: […]
How it was run: as §2

[12] = Oocyte, mean ± SEM, SEM, read-out: Uptake of [3H]CQ (% PfCRTDd2 control), cis-inhibition, non-expressing oocytes
[13] = non-expressing oocytes, normalised to the oocyte type control, read-out: Uptake of [3H]CQ (% non-expressing oocyte control), cis-inhibition
[14] = PfCRT3D7 oocytes, normalised to the oocyte type control, read-out: Uptake of [3H]CQ (% PfCRT3D7 control), cis-inhibition
[15] = mean ± SEM, SEM, read-out: Uptake of [3H]CQ (% PfCRTDd2 control), cis-inhibition, PfCRT3D7
[16] = read-out: PfCRT-mediated [3H]CQ transport, cis-inhibition (% PfCRTDd2 control)
[17] = read-out: Uptake of [3H]CQ (% PfCRTDd2 control), cis-inhibition
[18] = read-out: Uptake of [3H]CQ (% PfCRTDd2 control), cis-inhibition, PfCRTDd2, SEM
[19] = read-out: [3H]CQ transport (% PfCRTDd2 control), cis-inhibition, PfCRTDd2, SEM
[20] = read-out: PfCRT-mediated [3H]CQ transport, cis-inhibition (% PfCRTEcu1110 control)
[21] = read-out: Uptake of [3H]CQ (% PfCRTDd2 control), cis-inhibition, PfCRTEcu1110, SEM
[22] = read-out: Uptake of [3H]CQ (% PfCRTEcu1110 control), cis-inhibition
[23] = read-out: [3H]CQ transport (% PfCRTEcu1110 control), cis-inhibition, PfCRTEcu1110, SEM

T4 sequence (Q8IDM6 whole entry): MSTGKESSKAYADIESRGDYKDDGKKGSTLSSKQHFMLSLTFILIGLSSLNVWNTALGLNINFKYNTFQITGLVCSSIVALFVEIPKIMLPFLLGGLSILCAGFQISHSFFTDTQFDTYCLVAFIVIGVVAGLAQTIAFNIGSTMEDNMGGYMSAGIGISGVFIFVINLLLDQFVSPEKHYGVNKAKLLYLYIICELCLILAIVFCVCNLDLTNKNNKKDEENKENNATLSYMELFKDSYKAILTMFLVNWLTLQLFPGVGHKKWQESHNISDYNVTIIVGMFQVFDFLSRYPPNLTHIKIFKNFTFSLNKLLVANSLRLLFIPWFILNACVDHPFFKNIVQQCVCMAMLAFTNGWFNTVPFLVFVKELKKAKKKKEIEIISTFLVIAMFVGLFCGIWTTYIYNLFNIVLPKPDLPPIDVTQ
T1 sequence (Q8IBZ9 59-398): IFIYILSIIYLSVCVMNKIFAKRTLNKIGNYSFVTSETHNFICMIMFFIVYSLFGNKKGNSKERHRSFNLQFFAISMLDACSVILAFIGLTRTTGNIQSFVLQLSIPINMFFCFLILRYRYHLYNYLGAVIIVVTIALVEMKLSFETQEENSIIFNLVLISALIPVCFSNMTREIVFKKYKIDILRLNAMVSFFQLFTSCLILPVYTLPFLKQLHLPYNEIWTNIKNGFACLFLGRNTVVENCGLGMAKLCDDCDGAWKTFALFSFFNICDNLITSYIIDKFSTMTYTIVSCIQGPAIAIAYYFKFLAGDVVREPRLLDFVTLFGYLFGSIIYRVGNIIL
T2 sequence (Q9N623 whole entry A220S/I356T/K76T/M74I/N326S/N75E/Q271E/R371I): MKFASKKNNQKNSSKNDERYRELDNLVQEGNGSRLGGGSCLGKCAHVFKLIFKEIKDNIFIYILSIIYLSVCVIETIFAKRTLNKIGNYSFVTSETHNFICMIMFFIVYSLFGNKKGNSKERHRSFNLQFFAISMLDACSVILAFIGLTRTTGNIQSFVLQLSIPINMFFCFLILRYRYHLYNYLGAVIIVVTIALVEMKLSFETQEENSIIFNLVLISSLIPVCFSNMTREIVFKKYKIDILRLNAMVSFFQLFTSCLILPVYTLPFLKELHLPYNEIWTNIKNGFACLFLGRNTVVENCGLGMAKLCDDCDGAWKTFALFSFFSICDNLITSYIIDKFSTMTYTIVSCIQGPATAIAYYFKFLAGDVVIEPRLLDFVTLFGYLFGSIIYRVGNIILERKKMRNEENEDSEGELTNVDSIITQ
T3 sequence (Q9N623 whole entry A220S/I356L/K76T/N326D): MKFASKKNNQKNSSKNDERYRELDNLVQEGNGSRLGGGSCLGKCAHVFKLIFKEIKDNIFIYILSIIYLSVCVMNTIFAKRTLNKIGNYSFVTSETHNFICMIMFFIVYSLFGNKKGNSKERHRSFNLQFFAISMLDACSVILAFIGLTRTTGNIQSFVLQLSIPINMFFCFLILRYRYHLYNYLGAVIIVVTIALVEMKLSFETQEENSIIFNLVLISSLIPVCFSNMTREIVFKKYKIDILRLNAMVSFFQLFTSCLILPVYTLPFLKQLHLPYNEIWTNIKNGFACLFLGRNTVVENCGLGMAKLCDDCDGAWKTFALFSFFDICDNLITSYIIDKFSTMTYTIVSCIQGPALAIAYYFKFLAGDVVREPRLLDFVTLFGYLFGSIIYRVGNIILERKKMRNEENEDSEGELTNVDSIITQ

CC(C)[C@H](N)C(=O)O [L-valine]
Tested as potential co-substrate but not required for influx of VF-6 via PfCRT into the oocyte [1]: X | inhibition at 500 µM [2, 12]: 2.7 ± 0.05% | inhibition at 1000 µM [2, 12]: 2.5 ± 0.04% | inhibition at 2000 µM [2, 12]: 2.8 ± 0.07% | inhibition at 500 µM [2, 13]: 100 ± 4.8% | inhibition at 1000 µM [2, 13]: 101 ± 6.2% | inhibition at 2000 µM [2, 13]: 99 ± 6.2% | inhibition at 500 µM [3, 14]: 99 ± 3.6% | inhibition at 1000 µM [3, 14]: 99 ± 3.9% | inhibition at 2000 µM [3, 14]: 100 ± 5.5% | inhibition at 500 µM [3, 15]: 3.1 ± 0.07% | inhibition at 1000 µM [3, 15]: 3.4 ± 0.01% | inhibition at 2000 µM [3, 15]: 3.4 ± 0.04% | Uptake of [3H]CQ (% non-expressing oocyte control), trans-stimulation ([4]; [test solute]i = 5 mM): 99 ± 4.1 % non-expressing oocyte control | Uptake of [3H]CQ (% non-expressing oocyte control), trans-stimulation ([4]; [test solute]i = 45 mM (30 mM for some solutes due to solubility)): 100 ± 2.6 % non-expressing oocyte control | Uptake of [3H]CQ (% PfCRTDd2 control), trans-stimulation, non-expressing oocytes ([4]; [test solute]i = 5 mM (intracellular)): 2.6 ± 0.08 % PfCRTDd2 control | Uptake of [3H]CQ (% PfCRTDd2 control), trans-stimulation, non-expressing oocytes ([4]; [test solute]i = 45 mM (intracellular; 30 mM for some solutes due to solubility)): 2.7 ± 0.03 % PfCRTDd2 control | inhibition at 500 µM [5, 16]: 98 ± 3.6% | inhibition at 1000 µM [5, 16]: 98 ± 4.6% | inhibition at 2000 µM [5, 16]: 93 ± 4.1% | inhibition at 500 µM [5, 17]: 100 ± 2.6% | inhibition at 1000 µM [5, 17]: 100 ± 2.2% | inhibition at 500 µM [5, 18]: 100 ± 2.6% | inhibition at 1000 µM [5, 18]: 100 ± 2.2% | inhibition at 2000 µM [5, 18]: 95 ± 1.4% | inhibition at 500 µM [5, 19]: 98 ± 3.6% | inhibition at 1000 µM [5, 19]: 98 ± 4.6% | inhibition at 500 µM [6, 20]: 98 ± 2.5% | inhibition at 1000 µM [6, 20]: 95 ± 2.6% | inhibition at 2000 µM [6, 20]: 94 ± 2.5% | inhibition at 500 µM [6, 21]: 33 ± 1% | inhibition at 1000 µM [6, 21]: 32 ± 1.3% | inhibition at 2000 µM [6, 21]: 31 ± 1.6% | inhibition at 500 µM [6, 22]: 100 ± 1.5% | inhibition at 1000 µM [6, 22]: 97 ± 1.7% | inhibition at 2000 µM [6, 22]: 96 ± 1.5% | inhibition at 500 µM [6, 23]: 30 ± 0.6% | inhibition at 1000 µM [6, 23]: 29 ± 1.4% | inhibition at 2000 µM [6, 23]: 28 ± 0.4% | Tested as potential co-substrate but not required for influx of VF-6 via PfCRT into the oocyte [7]: X | activity at 5000 µM ([8]; PfCRT3D7 oocytes, [test solute]i = 5 mM, total [3H]CQ transport, normalised to the oocyte type control, read-out: Uptake of [3H]CQ (% PfCRT3D7 control), trans-stimulation): 98 ± 4.2% | [3H]CQ transport (% PfCRT3D7 control), trans-stimulation, PfCRT3D7 ([8]; SEM): 0.3 ± 0.01 % PfCRT3D7 control | activity at 5000 µM ([8]; [test solute]i = 5 mM (intracellular), PfCRT3D7 oocytes, normalised to oocyte type control, read-out: PfCRT-mediated [3H]CQ transport, trans-stimulation (% PfCRT3D7 control)): 96 ± 3.3% | activity at 45000 µM ([8]; SEM, read-out: Uptake of [3H]CQ (% PfCRTDd2 control), trans-stimulation, PfCRT3D7): 3.3 ± 0.01% | activity at 45000 µM ([8]; read-out: PfCRT-mediated [3H]CQ transport, trans-stimulation (% PfCRT3D7 control)): 96 ± 2.4% | activity at 45000 µM ([8]; read-out: Uptake of [3H]CQ (% PfCRT3D7 control), trans-stimulation): 98 ± 3.7% | activity at 5000 µM ([8]; total [3H]CQ transport, [test solute]i = 5 mM (intracellular), mean ± SEM, SEM, read-out: Uptake of [3H]CQ (% PfCRTDd2 control), trans-stimulation, PfCRT3D7): 3.3 ± 0.05% | activity at 5000 µM ([9]; pH 5.5, read-out: PfCRT-mediated [3H]CQ transport, trans-stimulation (% PfCRTDd2 control), [test solute]i = 5 mM (intracellular), PfCRTDd2 oocytes, normalised to oocyte type control): 97 ± 4.2% | activity at 5000 µM ([9]; pH 5.5, read-out: Uptake of [3H]CQ (% PfCRTDd2 control), trans-stimulation, PfCRTDd2, total [3H]CQ transport, [test solute]i = 5 mM (intracellular), mean ± SEM, SEM): 99 ± 3.2% | activity at 5000 µM ([9]; pH 5.5, read-out: Uptake of [3H]CQ (% PfCRTDd2 control), trans-stimulation, PfCRTDd2 oocytes, [test solute]i = 5 mM, total [3H]CQ transport, normalised to the oocyte type control): 99 ± 3.2% | activity at 45000 µM ([9]; pH 5.5, read-out: Uptake of [3H]CQ (% PfCRTDd2 control), trans-stimulation, PfCRTDd2 oocytes, total [3H]CQ transport, normalised to the oocyte type control): 97 ± 1.1% | activity at 5000 µM ([9]; pH 5.5, read-out: [3H]CQ transport (% PfCRTDd2 control), trans-stimulation, PfCRTDd2, trans-stimulation, [test solute]i = 5 mM (injected), PfCRT-mediated component (background subtracted), mean ± SEM, SEM): 97 ± 4.2% | activity at 45000 µM ([9]; pH 5.5, read-out: [3H]CQ transport (% PfCRTDd2 control), trans-stimulation, PfCRTDd2, trans-stimulation, PfCRT-mediated component (background subtracted), mean ± SEM, SEM): 95 ± 2.5% | activity at 5000 µM ([10]; PfNT1 oocytes, [test solute]i = 5 mM, normalised to the oocyte type control, read-out: Uptake of [3H]CQ (% PfNT1 control), trans-stimulation): 99 ± 2.9% | activity at 45000 µM ([10]; SEM, read-out: Uptake of [3H]CQ (% PfCRTDd2 control), trans-stimulation, PfNT1): 2.9 ± 0.04% | activity at 45000 µM ([10]; read-out: Uptake of [3H]CQ (% PfNT1 control), trans-stimulation): 100 ± 3.2% | activity at 5000 µM ([10]; [test solute]i = 5 mM (intracellular), mean ± SEM, SEM, read-out: Uptake of [3H]CQ (% PfCRTDd2 control), trans-stimulation, PfNT1): 2.7 ± 0.01% | activity at 5000 µM ([11]; pH 5.5, read-out: PfCRT-mediated [3H]CQ transport, trans-stimulation (% PfCRTEcu1110 control), [test solute]i = 5 mM (intracellular), PfCRTEcu1110 oocytes, normalised to oocyte type control): 96 ± 3.3% | activity at 5000 µM ([11]; pH 5.5, read-out: Uptake of [3H]CQ (% PfCRTEcu1110 control), trans-stimulation, PfCRTEcu1110 oocytes, [test solute]i = 5 mM, total [3H]CQ transport, normalised to the oocyte type control): 98 ± 3.6% | activity at 45000 µM ([11]; pH 5.5, read-out: Uptake of [3H]CQ (% PfCRTEcu1110 control), trans-stimulation, PfCRTEcu1110 oocytes, [test solute]i = 45 mM (30 mM for some solutes due to solubility), total [3H]CQ transport, normalised to the oocyte type control): 100 ± 2.5% | activity at 5000 µM ([11]; read-out: Uptake of [3H]CQ (% PfCRTDd2 control), trans-stimulation, PfCRTEcu1110, total [3H]CQ transport, [test solute]i = 5 mM (intracellular), mean ± SEM, SEM): 35 ± 1.6% | activity at 45000 µM ([11]; read-out: Uptake of [3H]CQ (% PfCRTDd2 control), trans-stimulation, PfCRTEcu1110, total [3H]CQ transport, [test solute]i = 45 mM (intracellular; 30 mM for some solutes due to solubility), mean ± SEM, SEM): 36 ± 1.4%
